# Columns and labels:
# Type in all cases: biochemical
# [1] = biological target: T1, recombinant human DAO (diamine oxidase) (Homo sapiens, UniProt P19801); assay: Activity on recombinant human DAO, method similar to the VAP-1 assay; details: substrate 1 mM putrescine; read-out: Inhibitory Activity (IC50, nM) DAO
# T1 construct: purchased R&D systems
# T1 sequence (P19801 20-751): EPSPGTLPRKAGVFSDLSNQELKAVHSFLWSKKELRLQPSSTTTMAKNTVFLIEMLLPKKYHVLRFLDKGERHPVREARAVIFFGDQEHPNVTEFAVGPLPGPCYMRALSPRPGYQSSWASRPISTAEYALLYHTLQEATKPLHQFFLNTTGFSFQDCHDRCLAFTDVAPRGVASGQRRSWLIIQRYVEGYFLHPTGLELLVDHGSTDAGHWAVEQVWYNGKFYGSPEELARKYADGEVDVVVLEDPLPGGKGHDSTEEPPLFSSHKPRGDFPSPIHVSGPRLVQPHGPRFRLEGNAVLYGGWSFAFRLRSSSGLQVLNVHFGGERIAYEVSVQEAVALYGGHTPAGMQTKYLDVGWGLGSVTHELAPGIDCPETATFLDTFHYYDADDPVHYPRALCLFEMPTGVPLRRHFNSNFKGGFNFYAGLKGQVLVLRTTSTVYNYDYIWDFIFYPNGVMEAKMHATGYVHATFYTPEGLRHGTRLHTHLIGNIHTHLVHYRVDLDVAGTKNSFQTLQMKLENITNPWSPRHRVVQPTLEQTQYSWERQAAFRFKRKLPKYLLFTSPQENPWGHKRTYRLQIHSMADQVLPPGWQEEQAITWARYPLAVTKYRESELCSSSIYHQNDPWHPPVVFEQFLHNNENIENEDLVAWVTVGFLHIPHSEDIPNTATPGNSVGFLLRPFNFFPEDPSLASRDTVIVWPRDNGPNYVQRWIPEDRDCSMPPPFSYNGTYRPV
# Procedure, shortened: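 Inhibition of recombinant human diamine oxidase (DAO, R&D systems) was assessed by the same approach as the VAP-1 assay, using 1 mM putrescine as substrate. Hydrogen peroxide formed was detected through an HRP-coupled Amplex Red reaction yielding fluorescent resorufin, read at 544 nm excitation and 590 nm emission. IC50 values came from four-parameter logistic fitting in GraphPad Prism.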
# [2] = biological target: T2, recombinant human MAO-B (monoamine oxidase-B) (Homo sapiens, UniProt P27338); assay: Activity on recombinant human MAO-B, method similar to the VAP-1 assay; details: substrate 1 mM benzylamine; read-out: Inhibitory Activity (IC50, nM) MAO-B
# T2 construct: purchased Sigma-Aldrich
# T2 sequence (P27338 1-520): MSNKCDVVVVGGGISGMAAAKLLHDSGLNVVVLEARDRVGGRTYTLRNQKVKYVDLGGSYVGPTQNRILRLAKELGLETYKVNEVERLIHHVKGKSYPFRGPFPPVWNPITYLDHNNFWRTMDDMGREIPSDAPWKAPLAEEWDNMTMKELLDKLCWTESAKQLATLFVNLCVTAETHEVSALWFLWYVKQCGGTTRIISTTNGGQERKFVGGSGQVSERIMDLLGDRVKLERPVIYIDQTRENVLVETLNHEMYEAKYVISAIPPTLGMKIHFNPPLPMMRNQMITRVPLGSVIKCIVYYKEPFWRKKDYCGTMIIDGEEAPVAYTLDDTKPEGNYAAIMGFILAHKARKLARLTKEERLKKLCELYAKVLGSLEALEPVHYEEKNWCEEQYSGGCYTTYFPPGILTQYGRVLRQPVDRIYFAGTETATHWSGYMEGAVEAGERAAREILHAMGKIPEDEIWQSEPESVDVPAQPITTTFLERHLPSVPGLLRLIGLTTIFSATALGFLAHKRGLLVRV
# Procedure, shortened: (§1)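 Amplex Red/HRP coupled read-out of H2O2 with 0.5 mM tyramine for MAO-A or 1 mM benzylamine for MAO-B, following a 30-min compound–enzyme preincubation at 37° C. IC50 from percent inhibition of signal rate relative to uninhibited control.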
# [3] = biological target: T3, recombinant human MAO-A (monoamine oxidase-A) (Homo sapiens, UniProt P21397); assay: Activity on recombinant human MAO-A, method similar to the VAP-1 assay; details: substrate 0.5 mM tyramine; read-out: Inhibitory Activity (IC50, nM) MAO-A
# T3 construct: purchased Sigma-Aldrich
# T3 sequence (P21397 1-527): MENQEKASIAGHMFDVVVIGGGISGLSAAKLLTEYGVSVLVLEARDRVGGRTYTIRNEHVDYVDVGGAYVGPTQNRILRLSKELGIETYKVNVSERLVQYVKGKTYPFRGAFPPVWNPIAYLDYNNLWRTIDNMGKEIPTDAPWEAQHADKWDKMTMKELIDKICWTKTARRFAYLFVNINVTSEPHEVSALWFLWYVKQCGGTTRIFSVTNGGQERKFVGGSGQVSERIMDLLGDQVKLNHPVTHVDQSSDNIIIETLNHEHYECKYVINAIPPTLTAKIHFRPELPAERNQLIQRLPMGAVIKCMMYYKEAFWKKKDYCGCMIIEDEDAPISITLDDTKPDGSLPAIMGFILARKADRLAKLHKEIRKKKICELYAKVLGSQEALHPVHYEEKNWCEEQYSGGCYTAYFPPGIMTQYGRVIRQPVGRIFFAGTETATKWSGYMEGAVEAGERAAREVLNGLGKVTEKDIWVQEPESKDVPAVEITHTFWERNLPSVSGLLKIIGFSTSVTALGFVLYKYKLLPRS
# Procedure, shortened: as §1
# recombinant human VAP-1 = biological target: T4, recombinant human VAP-1 (Homo sapiens, UniProt Q16853); assay: Activity on recombinant human VAP-1, HRP-coupled Amplex Red hydrogen peroxide assay; details: substrate 1 mM benzylamine; compound incubated with enzyme at 37° C. for 30 minutes; pH 7.4; read-out: Inhibitory Activity (IC50, nM) human VAP-1
# T4 construct: purchased R&D systems
# T4 sequence (Q16853 1-763): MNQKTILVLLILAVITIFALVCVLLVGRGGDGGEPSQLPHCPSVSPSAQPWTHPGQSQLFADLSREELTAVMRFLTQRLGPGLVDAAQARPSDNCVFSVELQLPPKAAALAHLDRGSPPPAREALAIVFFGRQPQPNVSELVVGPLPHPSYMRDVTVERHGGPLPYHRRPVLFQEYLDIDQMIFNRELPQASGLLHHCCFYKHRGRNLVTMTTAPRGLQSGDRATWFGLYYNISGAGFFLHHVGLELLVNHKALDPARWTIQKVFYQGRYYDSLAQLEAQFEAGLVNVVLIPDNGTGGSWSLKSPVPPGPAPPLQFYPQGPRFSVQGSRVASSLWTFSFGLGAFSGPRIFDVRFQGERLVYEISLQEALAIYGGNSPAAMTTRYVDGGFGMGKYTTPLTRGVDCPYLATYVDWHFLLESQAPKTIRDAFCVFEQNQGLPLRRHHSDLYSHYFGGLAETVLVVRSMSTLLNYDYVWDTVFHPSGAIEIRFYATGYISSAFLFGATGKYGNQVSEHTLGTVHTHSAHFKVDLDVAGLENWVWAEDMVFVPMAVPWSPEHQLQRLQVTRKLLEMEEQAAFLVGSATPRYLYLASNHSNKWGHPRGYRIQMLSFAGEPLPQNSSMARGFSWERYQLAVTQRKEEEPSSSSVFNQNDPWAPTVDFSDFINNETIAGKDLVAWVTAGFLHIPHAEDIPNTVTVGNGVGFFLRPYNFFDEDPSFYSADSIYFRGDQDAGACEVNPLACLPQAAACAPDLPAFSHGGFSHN
# Procedure, shortened: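 Dose-response IC50 determined from reduction in resorufin signal rate (544/590 nm, 1-2 h), with 30 min compound preincubation at 37 °C and 1 mM benzylamine as substrate.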
Structure (SMILES),IC50 [1] [nM],IC50 [2] [nM],IC50 [3] [nM],IC50 (recombinant human VAP-1) [nM]
"NC/C(=C\F)Cn1ncn(Cc2ccc(C3=CCNCC3)s2)c1=O [Example 163, 2-[(2E)-2-(aminomethyl)-3-fluoroprop-2-en-1-yl]-4-{[5-(1,2,3,6-tetrahydropyridin-4-yl)thiophen-2-yl]methyl}-2,4-dihydro-3H-1,2,4-triazol-3-one]",300,5500,> 100000,2.1
"NC/C(=C\F)Cn1ncn(Cc2ccc(-c3csc(CO)c3)s2)c1=O [Example 164, 2-[(2E)-2-(aminomethyl)-3-fluoroprop-2-en-1-yl]-4-{[5′-(hydroxymethyl)-2,3′-bithiophen-5-yl]methyl}-2,4-dihydro-3H-1,2,4-triazol-3-one]",6800,170,> 100000,2.5
"Cc1cscc1-c1ccc(Cn2cnn(C/C(=C/F)CN)c2=O)s1 [Example 165, 2-[(2E)-2-(aminomethyl)-3-fluoroprop-2-en-1-yl]-4-[(4′-methyl-2,3′-bithiophen-5-yl)methyl]-2,4-dihydro-3H-1,2,4-triazol-3-one]",5300,2.8,> 100000,7.5
"NC/C(=C\F)Cn1ncn(Cc2ccc(-c3ccc(N)cc3)s2)c1=O [Example 166, 2-[(2E)-2-(aminomethyl)-3-fluoroprop-2-en-1-yl]-4-{[5-(4-aminophenyl)thiophen-2-yl]methyl}-2,4-dihydro-3H-1,2,4-triazol-3-one]",14000,1300,> 100000,7.7
"NC/C(=C\F)Cn1ncn(Cc2ccc(Cc3ccc(OC(F)(F)F)cc3)s2)c1=O [Example 168, 2-[(2E)-2-(aminomethyl)-3-fluoroprop-2-en-1-yl]-4-({5-[4-(trifluoromethoxy)benzyl]thiophen-2-yl}methyl)-2,4-dihydro-3H-1,2,4-triazol-3-one]",4500,340,> 100000,12
"NC/C(=C\F)Cn1ncn(Cc2ccc(-c3ccc(CO)cc3)s2)c1=O [Example 169, 2-[(2E)-2-(aminomethyl)-3-fluoroprop-2-en-1-yl]-4-({5-[4-(hydroxymethyl)phenyl]thiophen-2-yl}methyl)-2,4-dihydro-3H-1,2,4-triazol-3-one]",12000,930,> 100000,3.3
"NC/C(=C\F)Cn1ncn(Cc2ccc(-c3ccc(CCO)cc3)s2)c1=O [Example 171, 2-[(2E)-2-(aminomethyl)-3-fluoroprop-2-en-1-yl]-4-({5-[4-(2-hydroxyethyl)phenyl]thiophen-2-yl}methyl)-2,4-dihydro-3H-1,2,4-triazol-3-one]",16000,740,> 100000,2.4

# Continued, values first:
IC50 [1] [nM],IC50 [2] [nM],IC50 [3] [nM],IC50 (recombinant human VAP-1) [nM],Structure (SMILES)
1100,51,> 100000,2.2,"NC/C(=C\F)Cn1ncn(Cc2ccc(-c3ccncc3)s2)c1=O [Example 160, 2-[(2E)-2-(aminomethyl)-3-fluoroprop-2-en-1-yl]-4-{[5-(pyridin-4-yl)thiophen-2-yl]methyl}-2,4-dihydro-3H-1,2,4-triazol-3-one]"
4300,15,> 100000,3.7,"CC(C)n1nccc1-c1ccc(Cn2cnn(C/C(=C/F)CN)c2=O)s1 [Example 161, 2-[(2E)-2-(aminomethyl)-3-fluoroprop-2-en-1-yl]-4-({5-[1-(propan-2-yl)-1H-pyrazol-5-yl]thiophen-2-yl}methyl)-2,4-dihydro-3H-1,2,4-triazol-3-one]"
250,250,> 100000,3.2,"Cn1nc(C(F)(F)F)cc1-c1ccc(Cn2cnn(C/C(=C/F)CN)c2=O)s1 [Example 162, 2-[(2E)-2-(aminomethyl)-3-fluoroprop-2-en-1-yl]-4-({5-[1-methyl-3-(trifluoromethyl)-1H-pyrazol-5-yl]thiophen-2-yl}methyl)-2,4-dihydro-3H-1,2,4-triazol-3-one]"
1800,> 10000,> 100000,2.4,"NC/C(=C\F)Cn1ncn(Cc2ccc(-c3cnc(N)nc3)s2)c1=O [Example 167, 2-[(2E)-2-(aminomethyl)-3-fluoroprop-2-en-1-yl]-4-{[5-(2-aminopyrimidin-5-yl)thiophen-2-yl]methyl}-2,4-dihydro-3H-1,2,4-triazol-3-one]"
3100,190,> 100000,3,"NC/C(=C\F)Cn1ncn(Cc2ccc(-c3ccc(OC(F)F)cc3)s2)c1=O [Example 170, 2-[(2E)-2-(aminomethyl)-3-fluoroprop-2-en-1-yl]-4-({5-[4-(difluoromethoxy)phenyl]thiophen-2-yl}methyl)-2,4-dihydro-3H-1,2,4-triazol-3-one]"

# Source: patent publication US11780830B2, “Triazolone derivatives or salts thereof and pharmaceutical compositions comprising the same” (YUHAN CORPORATION, priority 2018, dated 2023)
